Results as given in article PMC5867622, “Microginins from a Microcystis sp. Bloom Material Collected from the Kishon Reservoir, Israel” (Marine Drugs, 2018).
Where two headings read alike, the source gives them in different places. Square brackets hold non-standard residues; d marks the D form. Peptide text beside a SMILES is read from it. * marks the point of attachment. X1 = N[C@H](CCCCCCC(Cl)Cl)[C@@H](O)C(=O)*; X4 = CN[C@H](CCCCCCCCl)[C@@H](O)C(=O)*; X14 = CCCCCCC[C@@H](N)[C@@H](O)C(=O)*; X6 = N[C@@H](CCCCCCCCl)[C@H](O)C(=O)*; X7 = N[C@H](CCCCCCCCl)[C@@H](O)C(=O)*; NMeY = CN[C@@H](Cc1ccc(O)cc1)C(=O)O; X3 = CCCCCCC[C@H](NC)[C@H](O)C(=O)*; X9 = CCCCCCC[C@H](N)[C@H](O)C(=O)*; NMeL = CN[CH](CC(C)C)C(=O)O; X11 = CCCCCCCC(NC)C(O)C(=O)*; X5 = NC(CCCCCCCCl)C(O)C(=O)*; NMeV = CN[C@H](C(=O)O)C(C)C; X8 = CCCCCCCC(N)C(O)C(=O)*

Key:
[1] = biological target: T1, porcine kidney microsomal aminopeptidase M (Sus scrofa, UniProt P15145); assay: Aminopeptidase M inhibitory assay; format: biochemical
T1 construct: purchased Sigma-Aldrich (St. Louis, MO, USA); host or cells: porcine kidney microsomes
T1 sequence (P15145 1-963): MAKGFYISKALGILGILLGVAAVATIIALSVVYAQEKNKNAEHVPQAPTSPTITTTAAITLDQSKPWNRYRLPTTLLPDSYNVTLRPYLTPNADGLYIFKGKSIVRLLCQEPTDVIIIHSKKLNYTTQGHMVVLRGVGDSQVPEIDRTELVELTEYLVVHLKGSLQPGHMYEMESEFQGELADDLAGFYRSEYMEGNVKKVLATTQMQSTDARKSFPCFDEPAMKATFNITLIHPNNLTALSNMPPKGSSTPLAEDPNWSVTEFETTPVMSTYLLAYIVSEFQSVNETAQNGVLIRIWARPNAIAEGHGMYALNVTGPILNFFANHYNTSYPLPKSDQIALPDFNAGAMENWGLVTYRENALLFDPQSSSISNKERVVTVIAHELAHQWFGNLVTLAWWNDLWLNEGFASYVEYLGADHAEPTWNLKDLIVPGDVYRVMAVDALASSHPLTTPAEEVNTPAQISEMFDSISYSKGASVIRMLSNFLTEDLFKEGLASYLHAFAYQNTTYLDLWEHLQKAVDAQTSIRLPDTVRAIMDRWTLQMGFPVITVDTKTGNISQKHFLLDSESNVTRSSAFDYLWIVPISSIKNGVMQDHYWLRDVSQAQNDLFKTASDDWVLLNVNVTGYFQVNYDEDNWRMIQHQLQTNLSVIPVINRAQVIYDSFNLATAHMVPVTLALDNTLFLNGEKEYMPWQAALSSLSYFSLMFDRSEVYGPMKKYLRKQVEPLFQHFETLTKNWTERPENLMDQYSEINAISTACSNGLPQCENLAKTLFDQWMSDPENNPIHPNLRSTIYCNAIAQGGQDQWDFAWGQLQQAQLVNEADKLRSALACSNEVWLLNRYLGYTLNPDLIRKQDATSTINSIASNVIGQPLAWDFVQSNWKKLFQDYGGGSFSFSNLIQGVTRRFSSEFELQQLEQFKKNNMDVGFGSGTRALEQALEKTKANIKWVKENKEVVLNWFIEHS
Method: Aminopeptidase M inhibitory activity was determined according to the procedure described by Ishida et al.. A reaction mixture composed of 20 μL of L-leucine-p-nitroanilide (2 mM in 0.1 M Tris-HCl buffer at pH 7.0), 50 μL of 0.1 M Tris-HCl buffer (pH 7.0) and 20 μL of test solution was added to each well of a 96-well microtiter plate. The plate was incubated at 37 °C for 5 min; thereafter, 10 μL of porcine kidney microsomal aminopeptidase M [EC Number 232-942-5, Sigma-Aldrich (St. Louis, MO, USA), […] in 3.5 M (NH4)2SO4] was added to each well, and the absorbance at 405 nm was measured for 30 min. The microginin samples were dissolved in DMSO at a concentration of 1 mg/mL, and the IC50 values were determined by analysis of a series of dilutions (from 45.5 μM to 0.00069 μM). A sigmoidal curve of the enzyme inhibition versus the concentration of the inhibitor was observed that was fit to a 4-parameter logistic model.

APM = settings: cited from earlier work; for IC50: Table S1
ACE = settings: Table S1, cited from earlier work
[2] = read-out: Activity: APM, Table S1, source 14 = this manuscript
[3] = read-out: IC50 in μM ± SD, Table 4, substrate L-leucine-p-nitroanilide, Tris-HCl pH 7.0, 37 °C
[4] = ref 6 (Ishida et al., Tetrahedron 2000), read-out: Activity: APM
[5] = ref 6 (Ishida et al., Tetrahedron 2000)
[6] = ref 5 (Kodani et al., FEMS Microbiol. Lett. 1999), read-out: Activity: AMP
[7] = ref 5 (Kodani et al., FEMS Microbiol. Lett. 1999)

## CN[C@H](CCCCCCCCl)[C@@H](O)C(=O)N[C@@H](Cc1ccc(O)cc1)C(=O)N(C)[C@@H](CC(C)C)C(=O)N1CCC[C@H]1C(=O)N[C@@H](Cc1ccc(O)cc1)C(=O)O [Microginin KR801] (X4-Y[NMeL]PY-OH)
[1]; [2]
  IC50: 0.0001 µM
[1]; [3]
  IC50: 0.1 ± 0.2 µM

## CC[C@H](C)[C@H](NC(=O)[C@H](O)[C@H](N)CCCCCCC(Cl)Cl)C(=O)N(C)[C@@H](CC(C)C)C(=O)N1CCC[C@H]1C(=O)N[C@@H](Cc1ccc(O)cc1)C(=O)O [Microginin 91-E] (X1-I[NMeL]PY-OH)
APM; [4]
  IC50: 19.5 µM
ACE; [5]
  Activity: ACE (ni): ni

## CC(C)[C@H](NC(=O)[C@@H](O)[C@@H](N)CCCCCCCCl)C(=O)N(C)[C@H](C(=O)N(C)[C@@H](Cc1ccc(O)cc1)C(=O)N1CCC[C@H]1C(=O)N[C@@H](Cc1ccc(O)cc1)C(=O)O)C(C)C [Microginin 299-A] (X6-V[NMeV][NMeY]PY-OH)
APM; ref 2 (Ishida et al., Tetrahedron 1997), read-out: Activity: APM
  IC50: 5.2 µM
ACE; ref 2 (Ishida et al., Tetrahedron 1997)
  Activity: ACE (ni): ni

## CN[C@H](CCCCCCCCl)[C@@H](O)C(=O)N[C@@H](Cc1ccc(O)cc1)C(=O)N(C)[C@@H](CC(C)C)C(=O)N1CCC[C@H]1C(=O)N[C@@H](Cc1ccc(O)cc1)C(=O)OC [Microginin KR815] (X4-Y[NMeL]PY-OMe)
[1]; Activity: APM, Table S1, source 14 = this manuscript
  IC50: 0.072 µM
[1]; IC50 in μM ± SD, Table 4, substrate L-leucine-p-nitroanilide, Tris-HCl pH 7.0, 37 °C
  IC50: 72 ± 0.1 µM

## CCCCCCCC(N)C(O)C(=O)NC(Cc1ccc(O)cc1)C(=O)N(C)C(CC(C)C)C(=O)N1CCCC1C(=O)NC(Cc1ccc(O)cc1)C(=O)O (stereo not drawn) [Cyanostatin B] (X8-Y[NMeL]PY-OH; configuration not given here)
APM; ref 9 (Sano et al., Phytochem. 2005), read-out: Activity: APM
  IC50: 16 µM
ACE; ref 9 (Sano et al., Phytochem. 2005)
  IC50: 170 µM

## CCCCCCC[C@H](N)[C@H](O)C(=O)N[C@@H](Cc1ccc(O)cc1)C(=O)N(C)[C@H](C(=O)N(C)[C@@H](Cc1ccc(O)cc1)C(=O)N1CCC[C@@H]1C(=O)N[C@@H](Cc1ccc(O)cc1)C(=O)O)C(C)C [Microginin 51-A] (X9-Y[NMeV][NMeY][dP]Y-OH)
APM; [4]
  IC50: 4.9 µM
ACE; [5]
  Activity: ACE (ni): ni

## C[C@H](NC(=O)C(O)C(N)CCCCCCCCl)C(=O)N1CCC[C@H]1C(=O)N[C@@H](Cc1ccc(O)cc1)C(=O)N[C@@H](Cc1ccc(O)cc1)C(=O)O (stereo partly drawn) [Microginin T1] (X5-APYY-OH)
APM; [6]
  IC50: 2.7 µM
ACE; [7]
  IC50: 6.8 µM

## CCCCCCCC(NC)C(O)C(=O)NC(C(=O)N1CCCC1C(=O)NC(Cc1ccc(O)cc1)C(=O)NC(Cc1ccc(O)cc1)C(=O)O)C(C)O (stereo not drawn) [Microginin FR4] (X11-TPYY-OH; configuration not given here)
[1]; [2]
  IC50: 0.0018 µM
[1]; [3]
  IC50: 1.8 ± 0.04 µM

## CCCCCCC[C@@H](N)[C@@H](O)C(=O)N[C@H](C(=O)N(C)[C@@H](CC(C)C)C(=O)N1CCC[C@H]1C(=O)N[C@@H](Cc1ccc(O)cc1)C(=O)O)[C@@H](C)CC [Microginin 91-C] (X14-I[NMeL]PY-OH)
APM; [4]
  IC50: 71.1 µM
ACE; [5]
  Activity: ACE (ni): ni

## CCCCCCC[C@H](NC)[C@H](O)C(=O)N[C@@H](Cc1ccc(O)cc1)C(=O)N(C)[C@H](C(=O)N(C)[C@@H](Cc1ccc(O)cc1)C(=O)N1CCC[C@@H]1C(=O)N[C@@H](Cc1ccc(O)cc1)C(=O)O)C(C)C [Microginin 51-B] (X3-Y[NMeV][NMeY][dP]Y-OH)
APM; Table S1, 'APM, ACE-ni', ref 6 (Ishida et al., Tetrahedron 2000)
  Activity: APM (ni): ni
ACE; [5]
  Activity: ACE (ni): ni

## CCCCCCCC(N)C(O)C(=O)N[C@@H](C)C(=O)N1CCC[C@H]1C(=O)N[C@@H](Cc1ccc(O)cc1)C(=O)N[C@@H](Cc1ccc(O)cc1)C(=O)O (stereo partly drawn) [Microginin T2] (X8-APYY-OH)
APM; [6]
  IC50: 2.9 µM
ACE; [7]
  IC50: 10 µM

## CC[C@H](C)[C@H](NC(=O)[C@H](O)[C@H](N)CCCCCCCCl)C(=O)N(C)[C@@H](CC(C)C)C(=O)N1CCC[C@H]1C(=O)N[C@@H](Cc1ccc(O)cc1)C(=O)O [Microginin 91-D] (X7-I[NMeL]PY-OH)
APM; [4]
  IC50: 43.4 µM
ACE; [5]
  Activity: ACE (ni): ni
